From ChEMBL document CHEMBL5724914, “Linking interpersonal differences in gut microbiota composition and drug biotransformation activity” (2024)

Tests used:
[1] = (§1) The drug is tested on Z-028 corresponding to mouse gut metagenome with ENA study accession number: PRJEB37062 and ENA sample accession number: ERS12561827 for biotransformation under anaerobic condition. The drug concentrations were measured over 9 timepoints collected between 0 and 24 hours of incubation by liquid-chromatography-coupled mass spectrometry (LC–MS); details: 2 µM
[2] = as §1, with “Z-027” for “Z-028”, “to” for “to mouse gut”, “ERS12561826” for “ERS12561827”; details: 2 µM
[3] = as §1, with “Z-024” for “Z-028”, “pig” for “mouse”, “ERS12561823” for “ERS12561827”; details: 2 µM
[4] = as §1, with “Z-022” for “Z-028”, “ERS12561821” for “ERS12561827”; details: 2 µM
[5] = as §1, with “Z-016” for “Z-028”, “ERS12561815” for “ERS12561827”; details: 2 µM
[6] = as §1, with “WLS-240” for “Z-028”, “human” for “mouse”, “ERS12561773” for “ERS12561827”; details: 2 µM
[7] = as §1, with “WLS-098” for “Z-028”, “human” for “mouse”, “ERS12561754” for “ERS12561827”; details: 2 µM
[8] = as §1, with “WLS-082” for “Z-028”, “human” for “mouse”, “ERS12561751” for “ERS12561827”; details: 2 µM
[9] = as §1, with “WLS-073” for “Z-028”, “human” for “mouse”, “ERS12561749” for “ERS12561827”; details: 2 µM
[10] = as §1, with “WLS-069” for “Z-028”, “human” for “mouse”, “ERS12561748” for “ERS12561827”; details: 2 µM
[11] = as §1, with “WLS-052” for “Z-028”, “human” for “mouse”, “ERS12561747” for “ERS12561827”; details: 2 µM
[12] = as §1, with “WLS-027” for “Z-028”, “human” for “mouse”, “ERS12561744” for “ERS12561827”; details: 2 µM
[13] = human gut metagenome, 24 h, 2 µM
[14] = human gut metagenome, 24 h, 2 µM; remark: listed apart in the source
[15] = human gut metagenome, 24 h, 2 µM; remark: listed apart in the source
[16] = human gut metagenome, 24 h, 2 µM; remark: listed apart in the source
[17] = human gut metagenome, 24 h, 2 µM; remark: listed apart in the source
[18] = human gut metagenome, 24 h, 2 µM; remark: listed apart in the source
[19] = human gut metagenome, 24 h, 2 µM; remark: listed apart in the source
[20] = human gut metagenome, 24 h, 2 µM; remark: listed apart in the source
Also: call rule not given here.

| Compound | Bacterial Biotransformation [1] | Bacterial Biotransformation [2] | Bacterial Biotransformation [3] | Bacterial Biotransformation [4] | Bacterial Biotransformation [5] | Bacterial Biotransformation [6] | Bacterial Biotransformation [7] | Bacterial Biotransformation [8] | Bacterial Biotransformation [9] | Bacterial Biotransformation [10] | Bacterial Biotransformation [11] | Bacterial Biotransformation [12] | Bacterial Biotransformation [13] | Bacterial Biotransformation [14] | Bacterial Biotransformation [15] | Bacterial Biotransformation [16] | Bacterial Biotransformation [17] | Bacterial Biotransformation [18] | Bacterial Biotransformation [19] | Bacterial Biotransformation [20] |
| --- | --- | --- | --- | --- | --- | --- | --- | --- | --- | --- | --- | --- | --- | --- | --- | --- | --- | --- | --- | --- |
| C=CC[C@@H]1/C=C(\C)C[C@H](C)C[C@H](OC)[C@H]2O[C@@](O)(C(=O)C(=O)N3CCCC[C@H]3C(=O)O[C@H](/C(C)=C/[C@@H]3CC[C@@H](O)[C@H](OC)C3)[C@H](C)[C@@H](O)CC1=O)[C@H](C)C[C@@H]2OC.O [TACROLIMUS] | Compound NOT metabolized | Compound NOT metabolized | Compound NOT metabolized | Compound NOT metabolized | Compound NOT metabolized | Compound metabolized | Compound NOT metabolized | Compound metabolized | Compound metabolized | Compound metabolized | Compound metabolized | Compound metabolized | Compound metabolized | Compound NOT metabolized | Compound metabolized | Compound NOT metabolized | Compound metabolized | Compound metabolized | Compound metabolized | Compound metabolized |
| COc1ccc(CN2CCNCC2)c(OC)c1OC.Cl.Cl [TRIMETAZIDINE DIHYDROCHLORIDE] | Compound NOT metabolized | Compound NOT metabolized | Compound NOT metabolized | Compound NOT metabolized | Compound NOT metabolized | Compound NOT metabolized | Compound NOT metabolized | Compound NOT metabolized | Compound NOT metabolized | Compound NOT metabolized | Compound NOT metabolized | Compound NOT metabolized | Compound NOT metabolized | Compound NOT metabolized | Compound NOT metabolized | Compound NOT metabolized | Compound NOT metabolized | Compound NOT metabolized | Compound NOT metabolized | Compound NOT metabolized |
| CN1[C@@H]2CC[C@H]1C[C@@H](OC(=O)c1c[nH]c3ccccc13)C2 [TROPISETRON] | Compound NOT metabolized | Compound NOT metabolized | Compound NOT metabolized | Compound NOT metabolized | Compound NOT metabolized | Compound NOT metabolized | Compound NOT metabolized | Compound NOT metabolized | Compound NOT metabolized | Compound NOT metabolized | Compound NOT metabolized | Compound NOT metabolized | Compound NOT metabolized | Compound NOT metabolized | Compound NOT metabolized | Compound NOT metabolized | Compound NOT metabolized | Compound NOT metabolized | Compound NOT metabolized | Compound NOT metabolized |
